We go through two compounds from patent US20210332396A1, “GENETIC ELEMENTS IN ENTEROCOCCUS SPP. TO PRODUCE DOPAMINE” (Iowa State University Research Foundation, Inc., priority 2018, published 2021).

The conditions of data set [1]: cited from earlier work.
The test system of data set [2] is E. faecium strain ML1082. Description: Inhibition of dopamine production of strain ML1082 by Carbidopa in sSIM. It counts as cell-based, Enterococcus faecium. As for the experimental part:
To further verify the strains were producing dopamine from L-DOPA, Carbidopa, an inhibitor of dopamine production through L-DOPA decarboxylation, was added to sSIM. […] A functional approximation of the ICso for dopamine was calculated to be 1.53E^−3. The IC50 was similar to the L-DOPA concentration of the broth, 1.26 mM, a finding that may indicate a competitive inhibitory mechanism for the bacterial enzyme.

SMILES strings stand for the structures.

Turning to `NCCc1ccc(O)c(O)c1` [dopamine], in data set [1] (pH of 5.6), the half-life of auto-oxidation is given as 13.5 days and the “reaction rate for the auto-oxidation (k)” value is 0.000000591 s⁻¹. In data set [1] (pH of 7.4), the half-life of oxidation was 4.95 min and the oxidation rate is 0.000586 s⁻¹.
Regarding `C[C@@](Cc1ccc(O)c(O)c1)(NN)C(=O)O` [Carbidopa], the “inhibition of dopamine production (in words)” value in data set [2] is “dose-dependent inhibition”.
